Measurements taken from patent US8653004B2, “Actives-comprising polymer networks, processes for producing them, and their use” (priority 2007, dated 2014).
Values after ≈ are worked out from the molar mass of the structure shown.

Test: physchem
Format: physicochemical
Conditions: water

CCNc1nc(NC(C)(C)C)nc(SC)n1 [terbutryn, N2-tert-butyl-N4-ethyl-6-methylthio-1,3,5-triazine-2,4-diamine] gave a solubility of ~20 µg/mL (≈ 82.9 µM).
